According to patent EP4806892A1, “CEREBLON E3 UBIQUITIN LIGASE INHIBITOR” (GAN & LEE PHARMACEUTICALS CO., LTD., priority 2023, dated 2025):
pIC50: −log10 of the molar value.

What was measured:
[1] = biological target: T1, AR protein (Homo sapiens, UniProt P10275); assay: AR protein degradation in VCaP cells (Western blot); assay type: cell-based; conditions: 8h
T1 construct: AR-positive human prostate cancer cells VCaP (cell source: ATCC); host or cells: VCaP
T1 sequence (P10275 1-920): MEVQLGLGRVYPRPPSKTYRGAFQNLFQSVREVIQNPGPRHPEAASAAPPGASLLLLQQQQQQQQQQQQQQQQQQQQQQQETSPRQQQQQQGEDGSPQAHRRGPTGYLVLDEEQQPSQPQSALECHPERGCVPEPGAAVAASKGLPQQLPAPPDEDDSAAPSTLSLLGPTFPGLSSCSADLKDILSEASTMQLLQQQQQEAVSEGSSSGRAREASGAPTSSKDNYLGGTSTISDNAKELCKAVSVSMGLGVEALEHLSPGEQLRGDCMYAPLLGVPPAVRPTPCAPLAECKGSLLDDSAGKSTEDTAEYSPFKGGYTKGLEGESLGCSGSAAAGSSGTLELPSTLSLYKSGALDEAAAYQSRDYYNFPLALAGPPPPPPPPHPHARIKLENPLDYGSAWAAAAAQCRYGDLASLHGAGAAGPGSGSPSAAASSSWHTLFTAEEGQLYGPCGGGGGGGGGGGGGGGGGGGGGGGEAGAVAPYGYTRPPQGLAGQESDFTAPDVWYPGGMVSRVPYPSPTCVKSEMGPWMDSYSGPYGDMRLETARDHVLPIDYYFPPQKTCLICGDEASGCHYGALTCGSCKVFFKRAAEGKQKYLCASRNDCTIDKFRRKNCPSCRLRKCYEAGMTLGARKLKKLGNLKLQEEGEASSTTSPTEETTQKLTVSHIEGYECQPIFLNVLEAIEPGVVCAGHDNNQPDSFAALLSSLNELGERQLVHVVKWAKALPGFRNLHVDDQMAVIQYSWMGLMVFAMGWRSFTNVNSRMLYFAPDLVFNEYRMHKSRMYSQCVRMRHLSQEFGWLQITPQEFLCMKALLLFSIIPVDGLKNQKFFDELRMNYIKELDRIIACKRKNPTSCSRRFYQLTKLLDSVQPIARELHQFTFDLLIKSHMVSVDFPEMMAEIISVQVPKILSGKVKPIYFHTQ
Protocol: AR-positive human prostate cancer cells VCaP (cell source: ATCC) were cultured in DMEM (GiBco catalog number 11995-065) containing 10% FBS (Hyclone catalog number SH30406.05), and the cells were inoculated in a six-well microplate (Thermo catalog number 140675) at a density of 3 × 10^5 cells/well. After being cultured overnight in a carbon dioxide incubator (ESCO), the prepared compound of the present invention and the positive control sample ARV-766 (energy chemical) solution of different concentrations were added at a volume of 1 µL/well to make the final concentrations of the compound and the positive control sample reach 5nM and 0.5nM, respectively. At the same time, the corresponding solvent control was set and cultured for 8h. After 8h of culture, the culture medium was removed, and the cells were washed with PBS. RIPA lysis buffer containing 1% Protease Inhibitor Cocktail was added. After lysis and centrifugation, a total protein extract was obtained, and the protein concentration in the extract was detected by BCA method. Protein electrophoresis was performed using SDS-PAGE, and then the protein was transferred to a PVDF (Millipore Sigma catalog number PSRP010R5) membrane at a constant voltage of 100V for 60min. The PVDF membrane was placed in a 5% milk powder 1×TBST solution and blocked at room temperature for 1h. The primary antibody solution (Anti-Androgen receptor, Cell Signaling Technology catalog number: 5153S; 1:2000 dilution) was prepared and incubated at 4°C overnight. The primary antibody solution was discarded and the PVDF membrane was washed with 1×TBST for 5 minutes each time, three times. The secondary antibody solution (Thermo catalog number SA5-35571; 1:7500 dilution) was prepared and incubated at room temperature for 1 hour. The secondary antibody solution was discarded and the PVDF membrane was washed with 1×TBST for 5 minutes each time, three times. A dual-color infrared laser imaging system (Licor catalog number Odyssey CLX) was used for Western membrane imaging. The Image Studio software was used to analyze the grayscale of the bands. GAPDH protein bands were also detected for each sample as an internal reference. The AR protein degradation rate of the compound and the positive control sample was calculated based on the grayscale of the protein bands. Among them, "A" means degradation rate ≥ 50%, "B" means 50%> degradation rate ≥ 20%, "C" means 20% degradation rate ≥ 10%, and "D" means degradation rate less than 10%.

[2] = test system: VCaP cell; assay: VCaP cell proliferation inhibition (WST-8); assay type: cell-based; conditions: Homo sapiens, VCaP cells, 168 hours, read-out: IC50 for inhibiting VCAP cell proliferation
Protocol: VCaP cells (ATCC, CRL-2876) were cultured in DMEM (Gibco, 11995-065) complete medium containing 10% fetal bovine serum (Hyclone, SH30406.05). On the first day of the experiment, VCaP cells were seeded at a density of 15,000 cells/well in a 96-well plate using DMEM medium containing 10% fetal bovine serum, with 100 µL of cell suspension per well, and cultured overnight in a cell culture incubator at 37°C and 5% CO2. […] The final concentration of the compound was 9 concentration points of 5-fold serial dilution starting from 10 µM. The wells to which 100 µL of DMEM medium containing 10% fetal bovine serum was added were set as blank controls and cultured in a cell culture incubator at 37°C and 5% CO2 for 168 hours. On the ninth day, the 96-well cell culture plate was removed and 1/10 volume of WST-8 (Beytime, C0040) reagent was added to each well. The absorbance at 450 nm was measured using a microplate reader (TECAN, F50).

Compound | Degradation rate of AR protein in VCAP cells ([1]; 0.5 nM) | Degradation rate of AR protein in VCAP cells ([1]; 5 nM) | pIC50 [2]
COc1cc(O[C@H]2C(C)(C)[C@H](NC(=O)c3ccc(N4CCC(CN5CCN(c6ccc(C(=O)N[C@H]7CCC(=O)NC7=O)c(F)c6)CC5)CC4)cc3)C2(C)C)ccc1C#N [ARV766, reference compound] | A (degradation rate ≥ 50%) | A (degradation rate ≥ 50%) | 8.60
C[C@H]1CC2(CCN(c3ccc(C(=O)N4CCC(CN5CCC6(CC5)CN(C)c5ccc(N7CCC(=O)NC7=O)cc5O6)CC4)cc3)CC2)CN1c1ccc(C#N)c(Cl)c1 [A-P-235, (S)-2-chloro-4-(8-(4-(4-((7-(2,4-dioxotetrahydropyrimidin-1(2H)-yl)-4-methyl-3,4-dihydrospiro[benzo[b][1,4]oxazin-2,4'-piperidine]-1'-yl)methyl)piperidine-1-carbonyl)phenyl)-3-methyl-2,8-diazaspiro[4.5]decane-2-yl)benzonitrile] | A (degradation rate ≥ 50%) | A (degradation rate ≥ 50%) | 9.00
C[C@H]1CC2(CCN(c3ccc(C(=O)N4CCC(CN5CCC6(COc7cc(N8CCC(=O)NC8=O)ccc76)C(F)(F)C5)CC4)cc3)CC2)CN1c1ccc(C#N)c(Cl)c1 (some centres unmarked) [A-P-233] |  | B (50%> degradation rate ≥ 20%) | 7.82
COc1cc(O[C@H]2C(C)(C)[C@H](NC(=O)c3ccc(N4CCC(F)(CN5CCN6c7ccc(N8CCC(=O)NC8=O)cc7OCC[C@H]6C5)CC4)cc3)C2(C)C)ccc1C#N [A-P-196] | A (degradation rate ≥ 50%) | A (degradation rate ≥ 50%) | 9.00
C[C@H]1CC2(CCN(c3ccc(C(=O)N4CCC(CN5CCN6c7ccc(N8CCC(=O)NC8=O)cc7OCC[C@H]6C5)CC4)cc3)CC2)CN1c1ccc(C#N)c(C(F)(F)F)c1 [A-P-195] | B (50%> degradation rate ≥ 20%) | A (degradation rate ≥ 50%) | 7.89
